Experimental data from patent US20160361311A1, “LIGANDS THAT TARGET HEPATITIS C VIRUS E2 PROTEIN” (AMERICAN UNIVERSITY OF CAIRO, priority 2014, published 2016).

Key:
E2 = E2 (Hepatitis C virus genotype 1a, UniProt P27958); assay: Binding of CD81 ligand 73735 to E2 (method not given); parameters: species or system HCV
HCVpp 2a = HCVpp 2a infection of Huh-7 cells, 96-well (luciferase); format: cell-based, HCV; conditions: Hepatitis C virus, Huh-7, 30 h, read-out: IC50 HCVpp
Protocol: (§1) Pseudotyped retroviral particles harboring HCV envelope proteins (HCVpp) from different genotypes were produced as described previously. A plasmid encoding the feline endogenous virus RD114 glycoprotein [35] was used for the production of RD114pp. Both HCVpp and RD114pp expressed Firefly luciferase.
(§2) To identify ligands that inhibit HCV infection, Huh-7 cells were seeded in 96-well plates and treated the day after with six different concentrations of each ligand diluted in DMSO in duplicate using a Zephyr automated liquid handling workstation (Caliper BioSciences, Hopkinton, Mass.). The final concentration of DMSO (1%) was adjusted to be the same for all ligand concentrations. Cells treated with DMSO were used as negative controls. Cells treated with different concentrations of anti-CD81 (JS-81 from BD Pharmingen, San Jose, Calif.) 1 hour before infection, were also used as positive controls. The third day, RD114pp, HCVpp or HCVcc were inoculated and incubated for 30 hours at 37° C. Firefly and Gaussia luciferase assays were performed as indicated by the manufacturer (Promega, San Luis Obispo, Calif.).
(§3) The remaining ligands were next tested against pseudotyped retroviral particles harboring genotype-2a HCV envelope proteins (HCVpp 2a), cell culture produced HCV particles (HCVcc) or RD114pp. As a positive control, an anti-CD81 antibody was used in parallel.

recombinant E2 protein = biological target: T1, recombinant E2 protein (Hepatitis C virus genotype 1b, UniProt Q9WMX2); assay: Surface plasmon resonance (Biacore T100) binding to recombinant E2 immobilized on CM5 chip; conditions: for Binding (RU): 200 μM ligand in PBS, 3 min association; for Dissociation 1 (RU): response remaining 10 sec after rinsing with buffer; for Dissociation 2 (RU): response remaining 50 sec after rinsing with buffer
T1 construct: encoding amino acids 384-656 of the Con1 envelope protein 2 ectodomain (eE2); made in house; host or cells: HEK293T cells (lentiviral, secreted)
T1 sequence (Q9WMX2 384-656): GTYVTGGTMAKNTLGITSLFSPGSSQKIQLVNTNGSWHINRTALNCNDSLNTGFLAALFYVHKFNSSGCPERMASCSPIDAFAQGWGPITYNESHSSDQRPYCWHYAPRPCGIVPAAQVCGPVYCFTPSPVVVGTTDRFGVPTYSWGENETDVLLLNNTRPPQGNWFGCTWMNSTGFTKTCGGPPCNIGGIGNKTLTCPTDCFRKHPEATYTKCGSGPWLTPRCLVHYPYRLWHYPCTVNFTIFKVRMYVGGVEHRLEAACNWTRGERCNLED
From the text: A construct containing the sequence encoding amino acids 384-656 of the Con1 envelope protein 2 ectodomain (eE2), a genoptype 1 E2 sequence, was cloned into a lentiviral expression vector with a carboxy-terminal Protein A tag separated by a PreScission Protease cleavage consensus sequence. eE2-ProtA was stably expressed in HEK293T cells using lentiviral infection. The protein was secreted into the media and supernatants were purified using IgG Sepharose (GE Healthcare, Piscataway, N.J.). eE2-ProtA was eluted with 100 mM sodium citrate and 20 mM KCl at pH 3 directly into tubes containing 1M Tris pH 9 for immediate neutralization. PreScission Protease was added to the eluted sample at a ratio of 1:50 (enzyme:eE2), and the digest was then dialyzed into 20 mM HEPES pH 7.5, 250 mM NaCl, 5% glycerol. eE2 was separated from the cleaved tag and the PreScission Protease by ion exchange chromatography.
The set of 34 of the ligands predicted by AutoDock to bind to E2 were tested experimentally to determine if they bind to recombinant E2 protein immobilized on a chip using surface Plasmon resonance. The SPR analyses were performed using a Biacore T100 workstation (GE Healthcare, NJ, USA) and Prot-A-tagged HCV E2 protein. 1 μM ProtA-HCV E2 was diluted into 10 mM sodium acetate buffer pH 5 and immobilized for 15 min at a flow speed of 5 μl/min onto a CM5 sensor chip using amine coupling (EDC-NHS). Approximately 10,000 response units (RU) of protein were immobilized on the chip. His-CD81-LEL (Bioclone-CA/USA) binding to HCV E2 was tested prior to injecting the ligands to confirm the E2 protein was functional and would bind CD81-LEL. In a typical experiment with CD81, […] of his-CD81 in 114 μl PBS was injected into channel 2 and 106.4 RUs of CD81 bound to the E2 on the chip. This was followed by testing the binding of the 34 virtual screening hits where the ligands were prepared as 200 μM solutions in PBS and they were introduced to the protein using a pre-programmed 3 min association and 1 min dissociation interval. The response was measured at two time points during dissociation, 10 and 50 seconds, to obtain information on the rate of ligand dissociation from E2. Twenty-three of the ligands predicted by AutoDock to bind to E2 were observed by SPR to bind to the recombinant protein (Table 2). The measured responses for the ligands that bound varied from 54 to 276 RUs. Data was also obtained on the rate of ligand dissociation by measuring the amount of ligand remaining bound at two time points, dissociation 1 (10 seconds) and dissociation 2 (50 seconds), during the rinsing of the chip with buffer (FIG. 8). The majority of the ligands dissociated quickly, as one might expect for small molecules that bind to the surface of a protein.

HCVcc = HCVcc infection of Huh-7 cells (Gaussia luciferase); format: cell-based, HCV; conditions: Hepatitis C virus, Huh-7, 30 h, read-out: IC50 HCVcc
Protocol: The cell culture-produced HCV particles (HCVcc) used in this study were based on the JFH1 strain [36] and were prepared as described previously. They were engineered to express the A4 epitope, titer-enhancing mutations and Gaussia luciferase.
as §2, §3

RD114pp = RD114pp infection of Huh-7 cells (luciferase); format: cell-based, feline endogenous virus RD114; conditions: Feline endogenous virus RD114, Huh-7, 30 h, read-out: IC50 RD114pp
Protocol: as §1, §2
Pseudotyped retroviral particles harboring the envelope protein of an endogenous feline retrovirus (RD114pp) were first used to determine the specificity and the safety of molecules.

Chain of E2 (P27958 384-746): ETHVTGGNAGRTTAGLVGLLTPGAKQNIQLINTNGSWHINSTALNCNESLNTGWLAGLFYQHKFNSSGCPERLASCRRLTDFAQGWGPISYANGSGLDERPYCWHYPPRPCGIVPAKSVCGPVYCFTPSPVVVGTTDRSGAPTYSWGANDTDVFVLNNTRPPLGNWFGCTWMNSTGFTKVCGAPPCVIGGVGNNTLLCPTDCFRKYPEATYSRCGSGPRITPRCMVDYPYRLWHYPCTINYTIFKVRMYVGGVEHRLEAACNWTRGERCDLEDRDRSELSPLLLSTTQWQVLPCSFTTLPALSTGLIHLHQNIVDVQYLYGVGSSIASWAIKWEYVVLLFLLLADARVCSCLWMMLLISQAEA

## COc1cc(-c2ccc(Nc3ccccc3C(=O)O)c(OC)c2)ccc1Nc1ccccc1C(=O)O [Ligand 73735]
E2
  binding to E2 (in words): determined to bind to E2

## NC1=N[C@@H](c2ccc(Cl)cc2)N(c2ccc(S(N)(=O)=O)cc2)C(N)=N1 [Ligand 117268]
HCVpp 2a
  IC50: > 10 µM
Recombinant E2 protein
  Binding (RU): 88.5 RU
  Dissociation 1 (RU): 4.1 RU
  Dissociation 2 (RU): 1.2 RU
HCVcc
  IC50: > 10 µM
RD114pp
  IC50: 0.1 µM

## CCCc1nc(NC(=O)c2ccccc2)nc(NC(=O)c2ccccc2)n1 [Ligand 359472, N-(4-benzamido-6-propyl-1,3,5-triazin-2-yl)benzamide]
HCVpp 2a
  IC50: > 10 µM
Recombinant E2 protein
  Binding (RU): 62 RU
  Dissociation 1 (RU): 2.5 RU
  Dissociation 2 (RU): 0.8 RU
HCVcc
  IC50: > 10 µM
RD114pp
  IC50: > 10 µM

## NC(=O)C(=Cc1ccncc1)c1cccc2ccccc12 (stereo in doubt) [Ligand 144694, (E)-2-naphthalen-1-yl-3-pyridin-4-ylprop-2-enamide]
HCVpp 2a
  IC50: > 10 µM
Recombinant E2 protein
  Binding (RU): 118.8 RU
  Dissociation 1 (RU): 6 RU
  Dissociation 2 (RU): 2.3 RU
HCVcc
  IC50: > 10 µM
RD114pp
  IC50: > 10 µM
